# Earlier results in patent US20180162913A1, “METHODS FOR PO[…] IMMUNE RESPONSE USING DEPOT-FORMING AND NON-DEPOT-FORMING VACCINES” (IMMUNOVACCINE TECHNOLOGIES INC., priority 2015, published 2018).
structure (smiles),measurement,setting,value
"O=P1(N(CCCl)CCCl)NCCCO1 (stereo not drawn) [Cyclophosphamide (CPA), N,N-bis(2-chloroethyl)-1,3,2-oxazaphosphinan-2-amine 2-oxide]","bioavailability, intravenous infusion versus parenteral and oral administration",in vivo,little difference in bioavailability
same,Total systemic clearance of CPA and its metabolites,patients,5 to 9 h
same,"peak plasma levels of the parent, variation between patients",patients,3 to 11 h
